The values that follow come from ChEMBL document CHEMBL1201862, “PubChem BioAssay data set” (2004).

Test systems include LOX IMVI; SNB-19; MCF7; HL-60; NCI-H226; CAKI-1; U-251; HCT-15; HT-29; OVCAR-5; HOP-92; SK-MEL-5; UO-31; A549; HCT-116; KM12; SF-268; EKVX; Malme-3M; RXF 393.
Assay in all cases: NCI tumour cell line growth inhibition, 48 h

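Step 1: Grow cells in 96-well plates. Step 2: Expose to compound for 48 hours at 5 concentrations. Step 3: Interpolate endpoints linearly; if unreached, use highest concentration. GI50 is the concentration that inhibits growth by half.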 Active and inactive are the calls of the source. No stated cut-off is given here; in the data, active = GI50 up to about 1.1 µM and inactive = higher.

On to `CSCCC(NOC(=O)Cc1ccccc1)P(=O)(O)c1ccccc1` (centres undefined), for which the GI50 in the assay on LOX IMVI, in the assay with SNB-19, in the assay on MCF7, with HL-60, in the assay on NCI-H226 and in the assay with CAKI-1 was > 100 µM (inactive) in each case. Moreover, the GI50 in the assay with U-251 was > 100 µM (inactive); with HCT-15 it was over 100 µM; in the assay on HT-29, > 100 µM (inactive); in the assay with OVCAR-5, > 100 µM (inactive); in the assay with HOP-92, > 100 µM (inactive); in the assay on SK-MEL-5 it was > 100 µM (inactive). Besides, the GI50 in the assay on UO-31, in the assay with A549 and with HCT-116 was > 100 µM (inactive) throughout.

As to `COc1ccc2c(c1)c1c(n2CCN2CCCCC2)-c2cccc(OC)c2CC1`, the GI50 in the assay on KM12 was 13 µM (inactive); in the assay with LOX IMVI, 16.1 µM (inactive); in the assay on SNB-19, 13.4 µM (inactive); in the assay with MCF7 it was 15.5 µM (inactive); in the assay with NCI-H226, 10 µM (inactive); in the assay with CAKI-1, 16.4 µM (inactive). Also, the GI50 was 13.1 µM (inactive) in the assay with U-251; 8.99 µM in the assay with HCT-15; 4.58 µM (inactive) in the assay with HT-29; 16.1 µM (inactive) with OVCAR-5; 19.7 µM (inactive) in the assay on SF-268; 19.6 µM (inactive) in the assay with EKVX. The GI50 is > 10 µM (inactive) in the assay on HOP-92; 18.2 µM (inactive) in the assay on SK-MEL-5; 10.4 µM (inactive) with UO-31; 27.9 µM (inactive) in the assay with A549; 24.7 µM (inactive) with HCT-116.

For `Nc1ncnc2c1nnn2C1OC(CO)C(O)C1O` (centres undefined), the GI50 was 4.21 µM (inactive) with KM12; 3.58 µM (inactive) with Malme-3M; 1.8 µM (inactive) in the assay on LOX IMVI; 5.66 µM (inactive) in the assay with SNB-19; 2.48 µM (inactive) with MCF7; 0.405 µM (active) with HL-60. Besides, the GI50 was 3.71 µM (inactive) in the assay with NCI-H226; 4.5 µM (inactive) with CAKI-1; 7.28 µM (inactive) with U-251; 2.54 µM with HCT-15; 6.78 µM (inactive) in the assay on HT-29; 4.37 µM (inactive) with OVCAR-5. Further, the GI50 with SF-268 is 6.3 µM (inactive); with EKVX, 7.66 µM (inactive); in the assay with HOP-92, 7.14 µM (inactive); in the assay on SK-MEL-5, 4 µM (inactive); with UO-31, 2.07 µM (inactive); in the assay with A549, 3.65 µM (inactive). For the same compound, the GI50 in the assay on HCT-116 is 1.9 µM (inactive).

Regarding `CC(=O)NC(CCCCNC(=O)OC(C)(C)C)C(=O)O` (centres undefined), the GI50 in the assay on Malme-3M is > 100 µM (inactive); with LOX IMVI, > 100 µM (inactive); in the assay with SNB-19, > 100 µM (inactive); with MCF7, > 100 µM (inactive); in the assay on HL-60 it was > 100 µM (inactive); in the assay with CAKI-1 it was 63.4 µM (inactive). Moreover, the GI50 with U-251 is > 100 µM (inactive); with HCT-15 it was over 100 µM; in the assay with HT-29, > 100 µM (inactive); with OVCAR-5, 38.1 µM (inactive); in the assay with SF-268 it was > 100 µM (inactive); with EKVX, > 100 µM (inactive). Moreover, the GI50 with SK-MEL-5, in the assay with UO-31, in the assay on A549 and in the assay on HCT-116 was > 100 µM (inactive) throughout.

For `CN(C)C(=O)/N=C1\SC(=N\c2ccccc2)/C(=N/c2ccccc2)N1c1ccc([N+](=O)[O-])cc1`, the GI50 in the assay on KM12 is > 100 µM (inactive); in the assay with Malme-3M, > 100 µM (inactive); in the assay with SNB-19 it was > 100 µM (inactive); with MCF7 it was 84.7 µM (inactive); with HL-60, > 100 µM (inactive); in the assay with NCI-H226, > 100 µM (inactive). Further, the GI50 in the assay on RXF 393 is > 100 µM (inactive); with CAKI-1, > 100 µM (inactive); with U-251, > 100 µM (inactive); with HCT-15, over 100 µM; with HT-29, 52.4 µM (inactive); with OVCAR-5, > 100 µM (inactive). Also, the results for the GI50 with SK-MEL-5, in the assay with UO-31 and with HCT-116 were 49.8 µM (inactive), > 100 µM (inactive) and > 100 µM (inactive), respectively.

Take `CC(C)(C)[Si](C)(C)OCCCC#CCO`: the GI50 is > 100 µM (inactive) in the assay on KM12; > 100 µM (inactive) in the assay with Malme-3M; > 100 µM (inactive) in the assay on LOX IMVI; > 100 µM (inactive) in the assay on SNB-19; 25.8 µM (inactive) in the assay on HL-60; > 100 µM (inactive) with RXF 393. Further, the GI50 in the assay on CAKI-1 is > 100 µM (inactive); in the assay with U-251, > 100 µM (inactive); in the assay on HCT-15 it was over 100 µM; with HT-29, > 100 µM (inactive); with OVCAR-5, > 100 µM (inactive); in the assay with SF-268, > 100 µM (inactive). In addition, the GI50 in the assay on EKVX, with SK-MEL-5, in the assay with UO-31 and with A549 was > 100 µM (inactive) each time.

For the compound `Cc1cn(C2CC(O)C(Cn3cc(Cn4nc(Br)c(=O)[nH]c4=O)nn3)O2)c(=O)[nH]c1=O` (centres undefined), the GI50 is > 100 µM (inactive) in the assay with KM12; 78 µM (inactive) in the assay on Malme-3M; > 100 µM (inactive) in the assay on SNB-19; > 100 µM (inactive) in the assay on MCF7; > 100 µM (inactive) in the assay on NCI-H226; > 100 µM (inactive) with RXF 393. Moreover, the GI50 was > 100 µM (inactive) with CAKI-1; > 100 µM (inactive) with U-251; over 100 µM with HCT-15; > 100 µM (inactive) in the assay with OVCAR-5; > 100 µM (inactive) with SF-268; > 100 µM (inactive) with EKVX. Further, the GI50 with SK-MEL-5, in the assay on UO-31, in the assay with A549 and with HCT-116 was > 100 µM (inactive) throughout.

Regarding `COC1CCC(CO)OO1` (centres undefined), the GI50 in the assay on KM12 was 30.9 µM (inactive); in the assay with Malme-3M, 59.7 µM (inactive); in the assay on SNB-19, 41.4 µM (inactive); with HL-60, 18.4 µM (inactive); with RXF 393, 33.7 µM (inactive); with U-251, 4.57 µM (inactive). For the same compound, the GI50 was 28.9 µM (inactive) in the assay on HT-29; 25.9 µM (inactive) in the assay with OVCAR-5; 35.8 µM (inactive) in the assay on SF-268; 28.6 µM (inactive) in the assay with HOP-92; 35.1 µM (inactive) with UO-31; 30.3 µM (inactive) with HCT-116.

On to `O=C1OC2CC=CC1C2` (centres undefined), for which the GI50 in the assay on KM12, in the assay with Malme-3M, in the assay on LOX IMVI, in the assay with SNB-19, in the assay on MCF7 and in the assay on HL-60 was > 100 µM (inactive) throughout. In addition, the GI50 was > 100 µM (inactive) in the assay with NCI-H226; > 100 µM (inactive) in the assay with RXF 393; > 100 µM (inactive) in the assay with U-251; over 100 µM in the assay with HCT-15; > 100 µM (inactive) with HT-29; > 100 µM (inactive) with OVCAR-5. For the same compound, the GI50 in the assay with SF-268, in the assay on EKVX, with HOP-92, in the assay on SK-MEL-5, in the assay on UO-31 and with A549 was > 100 µM (inactive) each time. In addition, the GI50 in the assay with HCT-116 is > 100 µM (inactive).

Regarding `Clc1ccc(C2SCc3nc4ccccc4n32)cc1` (centres undefined), the GI50 in the assay on Malme-3M was 11.1 µM (inactive); in the assay on LOX IMVI it was 14.9 µM (inactive); in the assay with SNB-19, 14.8 µM (inactive); in the assay with HL-60, 5.24 µM (inactive); with NCI-H226, 19.4 µM (inactive); in the assay on CAKI-1, 16.8 µM (inactive). The GI50 is 24 µM (inactive) in the assay with U-251; 27.4 µM with HCT-15; 19.5 µM (inactive) in the assay with HT-29; 19 µM (inactive) in the assay on SF-268; 34.5 µM (inactive) with EKVX; 2.54 µM (inactive) in the assay with HOP-92. Besides, the figures for the GI50 in the assay on SK-MEL-5 and in the assay with UO-31 were 10.3 µM (inactive) and 13.5 µM (inactive), respectively.

Turning to `COc1ccc(NC(=S)NNC(=O)c2nsc3ccccc23)cc1`, the GI50 in the assay with KM12 was 37.3 µM (inactive); in the assay with LOX IMVI it was 34.4 µM (inactive); in the assay with SNB-19 it was 26.9 µM (inactive); with HL-60, 19.9 µM (inactive); with RXF 393, 22 µM (inactive); in the assay with U-251 it was 40.8 µM (inactive). The GI50 with HCT-15 was 21.8 µM; with HT-29, 45.9 µM (inactive); with OVCAR-5, > 100 µM (inactive); with SF-268, 34.4 µM (inactive); with EKVX it was 28.3 µM (inactive); with HOP-92, 17.4 µM (inactive). Further, the GI50 in the assay with SK-MEL-5 was 30.8 µM (inactive); in the assay on UO-31, 25.2 µM (inactive); in the assay on A549 it was 37.2 µM (inactive); with HCT-116 it was 28.4 µM (inactive).

For the compound `C[N+](C)(CCO)CCN1c2ccccc2Sc2ccccc21`, the GI50 with KM12, with Malme-3M, with LOX IMVI, in the assay on SNB-19, in the assay on MCF7 and in the assay on HL-60 was > 10 µM (inactive) throughout. For the same compound, the GI50 with NCI-H226 is > 10 µM (inactive); in the assay on RXF 393, > 10 µM (inactive); in the assay with CAKI-1 it was > 10 µM (inactive); in the assay on U-251, > 10 µM (inactive); in the assay on HCT-15, over 10 µM; in the assay with HT-29, > 10 µM (inactive). The GI50 in the assay with OVCAR-5 was > 10 µM (inactive); in the assay on SF-268, > 10 µM (inactive); with EKVX, > 10 µM (inactive); in the assay with SK-MEL-5, > 10 µM (inactive); in the assay on UO-31, 3.52 µM (inactive); in the assay with A549 it was > 10 µM (inactive). Also, the GI50 in the assay with HCT-116 was > 10 µM (inactive).
